Assay results as given in the supplement of paper PMC5908809.

How the values were obtained:
[1] = tested on: normal NK cells expanded with K562-aAPC; assay: percent inhibition of viability; higher = more inhibition; conditions: 72 h, IL-2 2.5 ng/mL
Procedure: (§1)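 Drug sensitivity and resistance testing on K562-aAPC-expanded normal NK cells: 5 concentrations (10-fold steps over a 10,000-fold range), 72 h at 37 °C, viability by CellTiter-Glo normalised to DMSO and benzethonium chloride controls; DSS from the fitted curve.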

DERL-7 (IL-2 2.5 ng/mL) [2] = assay: as above; conditions: 72 h
IMC-1 (IL-2 20 ng/mL) [3] = assay: as above; conditions: 72 h
KAI3 (IL-2 2.5 ng/mL) [4] = assay: as above; conditions: 72 h
KHYG-1 (IL-2 2.5 ng/mL) [5] = assay: as above; conditions: 72 h
NK-92 (IL-2 2.5 ng/mL) [6] = assay: as above; conditions: 72 h
NK-YS (IL-2 2.5 ng/mL) [7] = assay: as above; conditions: 72 h
NKL (IL-2 2.5 ng/mL) [8] = assay: as above; conditions: 72 h
SNK-6 (IL-2 2.5 ng/mL) [9] = assay: as above; conditions: 72 h
YT (IL-2 2.5 ng/mL) [10] = assay: as above; conditions: 72 h
[11] = tested on: normal primary NK cells, pool 1 (3 donors) (IL-2 2.5 ng/mL); assay: as above; conditions: 72 h
[12] = tested on: normal primary NK cells, pool 1 (3 donors), resting (IL-2 0 ng/mL); assay: as above; conditions: 72 h
[13] = tested on: normal primary NK cells, pool 2 (3 donors) (IL-2 2.5 ng/mL); assay: as above; conditions: 72 h
[14] = tested on: normal primary NK cells, pool 3 (3 donors) (IL-2 2.5 ng/mL); assay: as above; conditions: 72 h
[15] = tested on: normal NK cells expanded with K562-aAPC; assay: drug sensitivity score (DSS) (DSS units); higher = more sensitive; extreme values may be limits of the assay; conditions: 72 h; IL-2 2.5 ng/mL
Procedure: as §1

DERL-7 (IL-2 2.5 ng/mL) [16] = assay: as above; conditions: 72 h
IMC-1 (IL-2 20 ng/mL) [17] = assay: as above; conditions: 72 h
KAI3 (IL-2 2.5 ng/mL) [18] = assay: as above; conditions: 72 h
KHYG-1 (IL-2 2.5 ng/mL) [19] = assay: as above; conditions: 72 h
NK-92 (IL-2 2.5 ng/mL) [20] = assay: as above; conditions: 72 h
NK-YS (IL-2 2.5 ng/mL) [21] = assay: as above; conditions: 72 h
NKL (IL-2 2.5 ng/mL) [22] = assay: as above; conditions: 72 h
SNK-6 (IL-2 2.5 ng/mL) [23] = assay: as above; conditions: 72 h
YT (IL-2 2.5 ng/mL) [24] = assay: as above; conditions: 72 h
[25] = tested on: normal primary NK cells, pool 1 (3 donors) (IL-2 2.5 ng/mL); assay: as above; conditions: 72 h
[26] = tested on: normal primary NK cells, pool 1 (3 donors), resting (IL-2 0 ng/mL); assay: as above; conditions: 72 h
[27] = tested on: normal primary NK cells, pool 2 (3 donors) (IL-2 2.5 ng/mL); assay: as above; conditions: 72 h
[28] = tested on: normal primary NK cells, pool 3 (3 donors) (IL-2 2.5 ng/mL); assay: as above; conditions: 72 h

CC(=O)[C@]1(O)Cc2c(O)c3c(c(O)c2[C@@H](O[C@H]2C[C@H](N)[C@H](O)[C@H](C)O2)C1)C(=O)c1ccccc1C3=O [Idarubicin] (max concentration tested 1000 nM)
percent inhibition of viability [%]
Conditions	0.1 nM	1 nM	10 nM	100 nM	1000 nM
DERL-7 (IL-2 2.5 ng/mL) [2]	5.69	7.69	65.2	100	101
IMC-1 (IL-2 20 ng/mL) [3]	-7.47	-4.02	65.8	101	101
KAI3 (IL-2 2.5 ng/mL) [4]	12.1	20.2	75.2	88.7	108
KHYG-1 (IL-2 2.5 ng/mL) [5]	-9.43	1.7	74.3	108	110
NK-92 (IL-2 2.5 ng/mL) [6]	0.18	7.35	69.9	108	109
NK-YS (IL-2 2.5 ng/mL) [7]	-9.65	-1.39	71.5	80.4	107
NKL (IL-2 2.5 ng/mL) [8]	5.06	19.9	101	107	110
SNK-6 (IL-2 2.5 ng/mL) [9]	-5.01	-15.7	84.5	96.8	94.4
YT (IL-2 2.5 ng/mL) [10]	-10.7	-9.01	-4.8	100	110
[1]	1.32	-3	56.3	97.4	101
[11]	-4.61	-3.53	21.8	96.4	98.4
[12]	11	17.1	73.4	91.3	94
[13]	6.51	-1.19	51.6	94.8	97.9
[14]	4.34	4.31	46.5	98	100

Conditions	drug sensitivity score
DERL-7 (IL-2 2.5 ng/mL) [16]	26.1
IMC-1 (IL-2 20 ng/mL) [17]	25.6
KAI3 (IL-2 2.5 ng/mL) [18]	28.5
KHYG-1 (IL-2 2.5 ng/mL) [19]	26.5
NK-92 (IL-2 2.5 ng/mL) [20]	26.8
NK-YS (IL-2 2.5 ng/mL) [21]	26.4
NKL (IL-2 2.5 ng/mL) [22]	33.7
SNK-6 (IL-2 2.5 ng/mL) [23]	27.1
YT (IL-2 2.5 ng/mL) [24]	17.6
[15]	24.8
[25]	20.9
[26]	27.5
[27]	23.9
[28]	23.2
